Measurements reported in patent publication US11931324B2, “Pharmaceutical composition for prevention or treatment of osteoarthritis comprising obtusifolin, derivative thereof, or pharmaceutically acceptable salt thereof as active ingredient” (KOREA INSTITUTE OF SCIENCE AND TECHNOLOGY, priority 2021, dated 2024).

Legend:
primary chondrocytes = experiment: lactate dehydrogenase (LDH) cytotoxicity assay; type: cell-based, mouse; conditions: 24 hours, concentration of about 200 μM or less (FIG. 1)
Protocol: (§1) Mouse chondrocytes isolated from femur and tibial plateau were obtained from ICR mice of 5-days old. Cells were cultured in Dulbecco's Modified Eagle's medium to which about 10% fetal bovine serum and about 1% penicillin/streptomycin, and then grown in an incubator under conditions maintained with about 5% CO2 and a temperature of about 37° C. C57BL/6 mice (male, 10-weeks old, weighing about 18 g to 20 g, and n=5) were purchased from DBL (Chungcheongbuk-do, South Korea). The C57BL/6 mice were housed at a temperature of about 23° C. and exposed to a light-dark cycle of about 12 hours. Food and water were provided regularly. All animal experiments were performed under the approval of the Ajou University Animal Care and Use Committee.
The primary chondrocytes were treated with obtusifolin (0 μM, about 25 μM, about 50 μM, about 100 μM, and about 200 μM) and cultured for about 24 hours. Then, the supernatant of the culture was collected and allowed for a reaction using a LDH-cytotoxicity assay kit (K311-400; BioVision). According to the recommendations provided by the kit manufacturer, values were measured.
In this experimental example, cytotoxicity of obtusifolin was measured using a lactate dehydrogenase-assay to determine whether obtusifolin affected chondrocytes. Detailed experimental methods were described in Reference Example.

[1] = system: matrix metalloproteinase 3 (MMP3); experiment: MMP3 expression in IL-1β-treated chondrocytes (RT-PCR, qRT-PCR); type: cell-based, mouse
Protocol: (§2) Interleukin 1 beta (IL-1β) purchased from GenScript (Piscataway, NJ, USA) was dissolved in purified water. Obtusifolin and celecoxib were purchased from Sigma-Aldrich (St. Louis, MO, USA). Primary chondrocytes of the mice were cultured for 4 days under conditions of a temperature of about 37° C. and about 5% CO2. Afterwards, IL-1β (about 1 ng/mL) and either of obtusifolin or celecoxib were treated and cultured for about 24 hours. Then, the cultured chondrocytes were collected after about 5 days. To confirm the signal transduction pathway regulated by obtusifolin, the chondrocytes were pre-treated with obtusifolin or celecoxib and cultured for about 24 hours. […]
(§3) Chondrocyte RNAs were isolated using Trizol and chloroform. […] Transcription levels were quantified by qRT-PCR (ABI, Beverley, UK; StepOnePlus Real-Time PCR System). […]
(§4) In detail, chondrocytes treated with pro-inflammatory cytokine, IL-1β (about 1 ng/mL), for about 24 hours were treated with obtusifolin (about 0 μM to about 200 μM) or Celecoxib (about 50 μM). Then, in the resulting chondrocytes, the expression levels of matrix metalloproteinase 3 (MMP3), matrix metalloproteinase 13 (MMP13), and cyclooxygenase 2 (COX2) were measured by RT-PCR and qRT-PCR. In addition, the activity level of collagenase and the expression level of prostaglandin (PGE2) were measured. […]

[2] = system: matrix metalloproteinase 13 (MMP13); experiment: MMP13 expression in IL-1β-treated chondrocytes (RT-PCR, qRT-PCR); type: cell-based, mouse
Protocol: as §2, §3, §4

cyclooxygenase 2 (COX2) = experiment: COX2 expression in IL-1β-treated chondrocytes (RT-PCR, qRT-PCR); type: cell-based, mouse
Protocol: as §2, §3, §4

collagenase = experiment: total collagenase activity of IL-1β-treated chondrocytes (EnzCheck Gelatinase/Collagenase Assay kit); type: cell-based, mouse
Protocol: (§5) PGE2 production was evaluated using a PGE2 Immunoassay Kit (R & D System, Minneapolis, Minnesota, USA). Primary articular chondrocytes of mouse were seeded in a 96-well plate (about 2×10^4 cells/well). The level of secreted PGE2 in the primary chondrocytes of mouse treated with obtusifolin and IL-1β (about 1 ng/mL) was measured from the […]. By using an EnzCheck Gelatinase/Collagenase Assay kit (Molecular Probes, Carlsbad, CA, USA), total collagenase activity of the articular chondrocytes cultured in a medium conditioned with obtusifolin and IL-1β (about 1 ng/mL) was measured. The collagenase activity was quantified using a VICTOR X3 microplate reader (PerkinElmer, Waltham, MA, USA) at Ex/Em=490/530 nm according to the protocol provided by the manufacturer. […] After culturing the transfected cells in a complete medium for about 24 hours, luciferase activity was evaluated using an analysis kit (Promega, Madison, WI, USA), and the evaluated activity was normalized by β-galactosidase.
as §4, with “qRT-PCR.” for “qRT-PCR. In addition, the activity level of collagenase and the expression level of prostaglandin (PGE2) were measured.”

prostaglandin E2 (PGE2) = experiment: PGE2 production in IL-1β-treated chondrocytes (PGE2 Immunoassay Kit); type: cell-based, mouse
Protocol: as §5
as §4, with “qRT-PCR.” for “qRT-PCR. In addition, the activity level of collagenase and the expression level of prostaglandin (PGE2) were measured.”

p65 = p65 phosphorylation (NF-κB signal transduction) in IL-1β-treated chondrocytes, Western blotting and densitometry; type: cell-based, mouse
Protocol: as §2, §3
Here, as a loading control group, Erk1/2 was used. Band intensity was quantified by densitometry (AlphaEase FC 4.0; Alpha Innotech).
In detail, the chondrocytes treated with the pro-inflammatory cytokine, IL-1β (about 1 ng/mL), were collected, and the phosphorylation levels of p38, JNK, and p65 were measured through Western blotting. […] The chondrocytes were collected after the culture, and the phosphorylation level of p65 was measured through Western blotting and densitometry. […]

[3] = system: mice that have undergone DMM surgery; experiment: cartilage destruction induced by DMM surgery, mouse model, oral administration; type: in vivo
Protocol: as §1
According to a known technique, destabilization of the medial meniscus (DMM) surgery was performed on a mouse of about 10 week old to induce OA. Here, a Sham-operated mouse was used as a control group. […]
A mouse cartilage sample obtained from the mouse undergoing the DMM surgery was fixed about 4% para-formaldehyde followed by dehydration for about 2 weeks in about 0.5 mol/L EDTA (pH 8.0), to decalcify. […] The cartilage destruction was measured by Safranin O staining and scored using an Osteoarthritis Research […] International (OARSI) grading system.
Data values were expressed as mean±SEM after repeated experiments. […] Histological data were quantified based on an ordinal grading system including OARSI grades, subchondral bone plate thickness scores, and osteophyte grades, using non-parametric statistical methods. […]
In detail, the DMM surgery or shame surgery was performed on mice, and after about 4 weeks of the surgery, obtusifolin (about 10 mg/kg, about 50 mg/kg, or about 100 mg/kg) was administered to each mouse every day for 6 weeks. […] The degree of cartilage destruction was analyzed by analyzing images obtained after the staining. In detail, the OARSI grades, the degree of osteophyte formation, and a thickness of the subchondral bone were measured. […]

[4] = chondrocytes treated with IL-1β (about 1 ng/mL), obtusifolin about 0 μM to about 200 μM (FIGS. 2A, 2B)
[5] = obtusifolin about 100 μM to about 200 μM vs Celecoxib about 50 μM
[6] = chondrocytes treated with IL-1β (about 1 ng/mL), obtusifolin about 0 μM to about 200 μM (FIG. 2C)

SMILES: COc1c(O)c(C)cc2c1C(=O)c1c(O)cccc1C2=O [obtusifolin]
- cytotoxicity (primary chondrocytes): did not exhibit cytotoxicity
- expression level of MMP3 [1, 4]: decreased in a dose-dependent manner
- effect of reducing expression of MMP3 compared with Celecoxib [1, 5]: the same or similar level of effects as Celecoxib
- expression of MMP13 [2, 4]: decreased again
- effect of reducing expression of MMP13 compared with Celecoxib [2, 5]: the same or similar level of effects as Celecoxib
- expression level of COX2 (cyclooxygenase 2 (COX2); [4]): decreased in a dose-dependent manner
- effect of reducing expression of COX2 compared with Celecoxib (cyclooxygenase 2 (COX2); [5]): the same or similar level of effects as Celecoxib
- activity of collagenase (collagenase; [6]): decreased in a dose-dependent manner
- effect of reducing activity of collagenase compared with Celecoxib (collagenase; [5]): the same or similar level of effects as Celecoxib
- expression of PGE2 (prostaglandin E2 (PGE2); [6]): decreased in a dose-dependent manner
- effect of reducing expression of PGE2 compared with Celecoxib (prostaglandin E2 (PGE2); [5]): the same or similar level of effects as Celecoxib
- inhibition of phosphorylation of P65 compared with Celecoxib (p65; [5]): the same or similar level to that of Celecoxib
- phosphorylation of P65 (p65; pre-treated 24 hours with obtusifolin about 0 μM to 200 μM, then IL-1β (about 1 ng/mL) 10 minutes, as concentration increased (FIGS. 3B, 3C)): the phosphorylation of P65 was inhibited
- formation of osteophytes ([3]; DMM surgery mice, oral about 10, 50 or 100 mg/kg every day for 6 weeks (FIG. 5C)): reduced in a dose-dependent manner
- degree of cartilage destruction (Safranin O staining) ([3]; DMM surgery mice, oral about 10, 50 or 100 mg/kg every day for 6 weeks from 4 weeks after surgery (FIG. 5A)): decreased in a dose-dependent manner
- effects according to the dose concentration in sham surgery mice ([3]; sham surgery mice, oral about 10, 50 or 100 mg/kg every day for 6 weeks (FIGS. 5A to 5D)): no difference in the effects
